Data as given in patent US9796711B2, “Substituted pyrazolo[3,4-b]pyridin-6-carboxylic acids and method of use” (AbbVie S.àr.l., priority 2015, dated 2017).

Key:
ΔF508-CFTR [1] = biological target: T1, ΔF508-CFTR (Homo sapiens, UniProt P13569, DEL508-508); assay: CFTR cell surface levels using HRP-tagged ΔF508-CFTR expressing CFBE cells, in the presence of a co-corrector; assay type: cell-based; conditions: HRP-tagged ΔF508-CFTR expressing CFBE cells, in the presence of 3 μM co-corrector; for EC50: read-out: EC50
T1 construct: host or cells: CFBE41o-, doxycycline-inducible
T1 sequence (P13569 with tags, fused parts or gaps DEL508-508): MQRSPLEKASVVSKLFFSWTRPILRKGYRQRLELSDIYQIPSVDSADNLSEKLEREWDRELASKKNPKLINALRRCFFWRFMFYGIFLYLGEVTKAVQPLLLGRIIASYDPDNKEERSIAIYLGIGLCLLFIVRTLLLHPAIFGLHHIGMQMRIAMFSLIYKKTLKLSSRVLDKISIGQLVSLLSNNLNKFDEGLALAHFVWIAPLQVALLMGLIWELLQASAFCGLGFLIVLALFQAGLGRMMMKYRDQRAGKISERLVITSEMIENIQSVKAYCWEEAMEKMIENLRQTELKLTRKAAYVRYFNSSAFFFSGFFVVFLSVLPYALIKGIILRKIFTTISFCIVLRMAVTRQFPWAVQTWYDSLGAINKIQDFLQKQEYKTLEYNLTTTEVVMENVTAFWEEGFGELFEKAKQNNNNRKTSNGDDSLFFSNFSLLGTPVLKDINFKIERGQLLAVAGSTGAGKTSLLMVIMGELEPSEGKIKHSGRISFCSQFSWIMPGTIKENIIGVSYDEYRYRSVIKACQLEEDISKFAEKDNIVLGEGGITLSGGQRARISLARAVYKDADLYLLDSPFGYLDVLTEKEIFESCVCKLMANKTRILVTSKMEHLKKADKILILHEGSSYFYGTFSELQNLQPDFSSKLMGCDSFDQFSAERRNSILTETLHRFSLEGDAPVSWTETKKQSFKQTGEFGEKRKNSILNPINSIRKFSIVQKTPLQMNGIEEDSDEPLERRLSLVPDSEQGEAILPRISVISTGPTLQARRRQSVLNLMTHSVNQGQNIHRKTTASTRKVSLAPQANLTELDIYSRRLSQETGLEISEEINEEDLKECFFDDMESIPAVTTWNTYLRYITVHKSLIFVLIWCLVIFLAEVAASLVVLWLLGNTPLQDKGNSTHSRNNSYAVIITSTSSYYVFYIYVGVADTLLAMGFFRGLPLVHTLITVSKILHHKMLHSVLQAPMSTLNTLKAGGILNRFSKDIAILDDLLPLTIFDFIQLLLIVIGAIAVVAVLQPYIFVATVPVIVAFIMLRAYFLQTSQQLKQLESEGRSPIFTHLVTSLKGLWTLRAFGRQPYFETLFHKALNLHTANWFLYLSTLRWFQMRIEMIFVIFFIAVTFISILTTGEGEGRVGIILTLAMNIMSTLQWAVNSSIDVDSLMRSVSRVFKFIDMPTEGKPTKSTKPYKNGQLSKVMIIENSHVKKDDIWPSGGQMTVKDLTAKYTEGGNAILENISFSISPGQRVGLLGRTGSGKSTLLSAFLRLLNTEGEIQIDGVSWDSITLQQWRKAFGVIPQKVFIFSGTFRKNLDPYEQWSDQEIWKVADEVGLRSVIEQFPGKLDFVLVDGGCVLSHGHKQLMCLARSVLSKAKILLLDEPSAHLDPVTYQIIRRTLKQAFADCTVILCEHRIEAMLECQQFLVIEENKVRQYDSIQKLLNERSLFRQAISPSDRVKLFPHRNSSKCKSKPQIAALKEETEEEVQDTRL
Method in brief: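 Cells were seeded with 0.5 μg/mL doxycycline and held 68 h at 37 °C. Test compounds plus 3 μM co-corrector (final 0.1% DMSO) were then added for 20 h at 33 °C. Washed cells received HRP substrate, and luminescence was normalized between DMSO and 3 μM co-corrector controls.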

ΔF508-CFTR [2] = biological target: T1, ΔF508-CFTR; assay: CFTR cell surface levels using HRP-tagged ΔF508-CFTR expressing CFBE cells, intrinsic corrector capacity; assay type: cell-based; conditions: for EC50: read-out: EC50
Method in brief: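 Here the cells express ΔF508-CFTR with horseradish peroxidase inserted in extracellular loop 4, so only rescued channel at the surface gives luminescent signal. Compounds act on their own, 20 h at the reduced temperature of 33 °C; values are percent activity relative to DMSO and a 3 μM corrector.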

[3] = HRP-tagged ΔF508-CFTR expressing CFBE cells, intrinsic corrector capacity (no co-corrector), 33° C., 20 hours
[4] = HRP-tagged ΔF508-CFTR CFBE41o- cells, compounds alone (intrinsic corrector capacity), 20 hours at 33° C., positive control 3 μM corrector
[5] = HRP-tagged ΔF508-CFTR CFBE41o- cells, compounds alone (intrinsic corrector capacity), 20 hours at 33° C.

SMILES	% Activation (ΔF508-CFTR [1]) [%]	EC50 (ΔF508-CFTR [1]) [nM]	% Activation (ΔF508-CFTR [2]; [3]) [%]	EC50 (ΔF508-CFTR [2]; [3]) [nM]	% Activation (ΔF508-CFTR [2]; [4]) [%]	EC50 (ΔF508-CFTR [2]; [5]) [nM]	% Activation (ΔF508-CFTR [2]; HRP-tagged ΔF508-CFTR CFBE cells, compound alone (intrinsic corrector capacity), 20 hours at 33° C.) [%]
CN(C1CCOCC1)C1CCN(c2cc(C(=O)O)nc3c2c(C2CCC2)nn3-c2ccc(F)cc2)CC1 [compound 854, 3-cyclobutyl-1-(4-fluorophenyl)-4-{4-[methyl(oxan-4-yl)amino]piperidin-1-yl}-1H-pyrazolo[3,4-b]pyridine-6-carboxylic acid]	380.7	3330	131.1	2080			
Cc1nn(-c2ccccc2)c2nc(C(=O)O)cc(-c3ccc(NC4COC4)cc3)c12 [compound 112, 3-methyl-4-{4-[(oxetan-3-yl)amino]phenyl}-1-phenyl-1H-pyrazolo[3,4-b]pyridine-6-carboxylic acid]	378.1	2370			200.55	2470	
O=C(O)c1cc(N2CCC(N3CCOCC3)CC2)c2c(C3CCC3)nn(-c3ccc(C(F)(F)F)cc3)c2n1 [compound 823, 3-cyclobutyl-4-[4-(morpholin-4-yl)piperidin-1-yl]-1-[4-(trifluoromethyl)phenyl]-1H-pyrazolo[3,4-b]pyridine-6-carboxylic acid]	375.2	147	188.7	258			
CN(C)c1ncc(-c2cc(C(=O)O)nc3c2c(C(C)(C)C)nn3C2CCCCC2)cn1 [compound 147, 3-tert-butyl-1-cyclohexyl-4-[2-(dimethylamino)pyrimidin-5-yl]-1H-pyrazolo[3,4-b]pyridine-6-carboxylic acid]	318.9	831			114.65	1050	
CC(C)c1nn(-c2ccc(F)cc2F)c2nc(C(=O)O)cc(-c3cnc(N4CCC(C#N)CC4)nc3)c12 [compound 325, 4-[2-(4-cyanopiperidin-1-yl)pyrimidin-5-yl]-1-(2,4-difluorophenyl)-3-(propan-2-yl)-1H-pyrazolo[3,4-b]pyridine-6-carboxylic acid]	389.75	779			177.1	1200	
CC(C)N1CCN(c2ccc(-c3cc(C(=O)O)nc4c3c(C3CCC3)nn4C3CCCCC3)cc2)CC1 [compound 867, 3-cyclobutyl-1-cyclohexyl-4-{4-[4-(propan-2-yl)piperazin-1-yl]phenyl}-1H-pyrazolo[3,4-b]pyridine-6-carboxylic acid]	290.65	317	125.2	1410			
CC(C)c1nn(C2CCCCC2)c2nc(C(=O)O)cc(-c3ccc(N4CCC(F)(F)C4)nc3)c12 [compound 181, 1-cyclohexyl-4-[6-(3,3-difluoropyrrolidin-1-yl)pyridin-3-yl]-3-(propan-2-yl)-1H-pyrazolo[3,4-b]pyridine-6-carboxylic acid]	397.95	1060			149.2	1220	
CN(C)CC(C)(C)COc1cc(C(=O)O)nc2c1c(C1CCC1)nn2-c1ccccc1 [compound 636, 3-cyclobutyl-4-[3-(dimethylamino)-2,2-dimethylpropoxy]-1-phenyl-1H-pyrazolo[3,4-b]pyridine-6-carboxylic acid]	391.3	790	184.1	617			
Cc1nn(-c2ccccc2)c2nc(C(=O)O)cc(-c3ccc(N4CCN(CC#N)CC4)cc3)c12 [compound 98, 4-{4-[4-(cyanomethyl)piperazin-1-yl]phenyl}-3-methyl-1-phenyl-1H-pyrazolo[3,4-b]pyridine-6-carboxylic acid]	350.65	834			165.8	1150	
CCOC(=O)N1CCN(C2CCN(c3cc(C(=O)O)nc4c3c(C3CCC3)nn4-c3ccc(F)cc3)CC2)CC1 [compound 891, 3-cyclobutyl-4-{4-[4-(ethoxycarbonyl)piperazin-1-yl]piperidin-1-yl}-1-(4-fluorophenyl)-1H-pyrazolo[3,4-b]pyridine-6-carboxylic acid]	564.5	51	367.25	93.1			
CC(=O)N1CCC(F)(COc2cc(C(=O)O)nc3c2c(C2CCC2)nn3-c2ccccc2)CC1 [compound 479, 4-[(1-acetyl-4-fluoropiperidin-4-yl)methoxy]-3-cyclobutyl-1-phenyl-1H-pyrazolo[3,4-b]pyridine-6-carboxylic acid]	317.77	1850	114.41	1850			
O=C(O)c1cc(N2CCC3(CC2)CC(N2CCCC2)CO3)c2c(C3CCC3)nn(-c3ccc(F)cc3)c2n1 (stereo not drawn) [compound 862, 3-cyclobutyl-1-(4-fluorophenyl)-4-[3-(pyrrolidin-1-yl)-1-oxa-8-azaspiro[4.5]decan-8-yl]-1H-pyrazolo[3,4-b]pyridine-6-carboxylic acid]	359.6	636	186.5	637			
CCCOCCN1CCN(c2cc(C(=O)O)nc3c2c(C2CCC2)nn3-c2ccccc2)CC1 [compound 555, 3-cyclobutyl-1-phenyl-4-[4-(2-propoxyethyl)piperazin-1-yl]-1H-pyrazolo[3,4-b]pyridine-6-carboxylic acid]	310.65	169	152	331			
O=C(O)c1cc(N2CCOC(CO)C2)c2c(C3CCC3)nn(-c3ccccc3)c2n1 (stereo not drawn) [compound 531, 3-cyclobutyl-4-[2-(hydroxymethyl)morpholin-4-yl]-1-phenyl-1H-pyrazolo[3,4-b]pyridine-6-carboxylic acid]	223.4	1450	91.66	3330			
COC1CCN(C2CCN(c3cc(C(=O)O)nc4c3c(O)nn4-c3ccc(F)cc3)CC2)CC1 [compound 925, 1-(4-fluorophenyl)-3-hydroxy-4-(4-methoxy[1,4′-bipiperidin]-1′-yl)-1H-pyrazolo[3,4-b]pyridine-6-carboxylic acid]	126.05						11.745
O=C(O)c1cc(N2CCC(CN3CC(OCC(F)F)C3)CC2)c2c(C3CCC3)nn(-c3ccccc3)c2n1 [compound 835, 3-cyclobutyl-4-(4-{[3-(2,2-difluoroethoxy)azetidin-1-yl]methyl}piperidin-1-yl)-1-phenyl-1H-pyrazolo[3,4-b]pyridine-6-carboxylic acid]	466.9	67.6	291.5	163			
COc1ccc(-c2cc(C(=O)O)nc3c2c(C)nn3C2CCCCC2)cc1 [compound 2, 1-cyclohexyl-4-(4-methoxyphenyl)-3-methyl-1H-pyrazolo[3,4-b]pyridine-6-carboxylic acid]	198.6	2970			49.03	2650	
CC(C)N1CNC(=O)C12CCN(c1cc(C(=O)O)nc3c1c(C1CCC1)nn3-c1ccccc1)CC2 [compound 469, 3-cyclobutyl-4-[4-oxo-1-(propan-2-yl)-1,3,8-triazaspiro[4.5]decan-8-yl]-1-phenyl-1H-pyrazolo[3,4-b]pyridine-6-carboxylic acid]	360.3	716	198.95	1120			
COCCOCC1(F)CCN(c2cc(C(=O)O)nc3c2c(C2CCC2)nn3-c2ccccc2)C1 (stereo not drawn) [compound 532, 3-cyclobutyl-4-{3-fluoro-3-[(2-methoxyethoxy)methyl]pyrrolidin-1-yl}-1-phenyl-1H-pyrazolo[3,4-b]pyridine-6-carboxylic acid]	271.77	349	107.05	707			
CC(C)c1nn(C2CCOC2)c2nc(C(=O)O)cc(-c3ccc(N4CCOCC4)cc3)c12 (stereo not drawn) [compound 120, 4-[4-(morpholin-4-yl)phenyl]-1-(oxolan-3-yl)-3-(propan-2-yl)-1H-pyrazolo[3,4-b]pyridine-6-carboxylic acid]	231.45	3140			70.235	3340	
O=C(O)c1cc(OCCC2CCOCC2)c2c(C3CCC3)nn(-c3ccccc3)c2n1 [compound 414, 3-cyclobutyl-4-[2-(oxan-4-yl)ethoxy]-1-phenyl-1H-pyrazolo[3,4-b]pyridine-6-carboxylic acid]	295.15	373	120.3	692			
Cc1nn(-c2ccccc2)c2nc(C(=O)O)cc(O[C@H]3C[C@@H](N4CCCCC4)C3)c12 [compound 346, 3-methyl-1-phenyl-4-{[cis-3-(piperidin-1-yl)cyclobutyl]oxy}-1H-pyrazolo[3,4-b]pyridine-6-carboxylic acid]	151.2	4170			20.555	7500	
Cc1nn(C2CCCCC2)c2nc(C(=O)O)cc(-c3ccc(N(C)C)nc3)c12 [compound 99, 1-cyclohexyl-4-[6-(dimethylamino)pyridin-3-yl]-3-methyl-1H-pyrazolo[3,4-b]pyridine-6-carboxylic acid]	247.8	1100			80.69	1530	
